#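 Compound exposure: 48 hours, 5 concentrations, 96-well plates. GI50: concentration for 50% inhibition of growth.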 Activity calls are given as the source filed them. Cut-off read from the data, not from the text of the source: active = GI50 up to about 1.1 µM and inactive = higher.
# What was measured:
# Assay in all cases: NCI-60 cell line screen, 48 h
# 786-0 = test system: 786-0
# A498 = test system: A498
# A549 = test system: A549
# ACHN = test system: ACHN
# CAKI-1 = test system: CAKI-1
# CCRF-CEM = test system: CCRF-CEM
# COLO 205 = test system: COLO 205
# DLD-1 = test system: DLD-1
# DMS-114 = test system: DMS-114
# DMS-273 = test system: DMS-273
# EKVX = test system: EKVX
# HCC 2998 = test system: HCC 2998
# HCT-116 = test system: HCT-116
# HCT-15 = test system: HCT-15
# HL-60 = test system: HL-60
# HOP-62 = test system: HOP-62
# HOP-92 = test system: HOP-92
# HT-29 = test system: HT-29
# IGROV-1 = test system: IGROV-1
# K562 = test system: K562
# KM-20L2 = test system: KM-20L2
# KM12 = test system: KM12
# LOX IMVI = test system: LOX IMVI
# LXFL 529 = test system: LXFL 529
# M14 = test system: M14
# M19-MEL = test system: M19-MEL
# MOLT-4 = test system: MOLT-4
# Malme-3M = test system: Malme-3M
# NCI-H226 = test system: NCI-H226
# NCI-H23 = test system: NCI-H23
# NCI-H460 = test system: NCI-H460
# NCI-H522 = test system: NCI-H522
# OVCAR-3 = test system: OVCAR-3
# OVCAR-4 = test system: OVCAR-4
# OVCAR-5 = test system: OVCAR-5
# OVCAR-8 = test system: OVCAR-8
# RPMI-8226 = test system: RPMI-8226
# RXF 393 = test system: RXF 393
# SF-268 = test system: SF-268
# SF-295 = test system: SF-295
# SF-539 = test system: SF-539
# SK-MEL-28 = test system: SK-MEL-28
# SK-MEL-5 = test system: SK-MEL-5
# SK-OV-3 = test system: SK-OV-3
# SN12C = test system: SN12C
# SNB-19 = test system: SNB-19
# SNB-75 = test system: SNB-75
# SNB-78 = test system: SNB-78
# SW-620 = test system: SW-620
# TK-10 = test system: TK-10
# U-251 = test system: U-251
# UACC-257 = test system: UACC-257
# UACC-62 = test system: UACC-62
# UO-31 = test system: UO-31
# XF498 = test system: XF498
# HOP-18 = test system: HOP-18
# SK-MEL-2 = test system: SK-MEL-2
# SR = test system: SR
smiles,measurement,setting,value
COC(=O)C1[C@H](c2cc(OC)c(OC)c(OC)c2)OC(=O)C1(C(=O)OC)C(=O)c1ccc2c(c1)OCO2 (stereo not given in full),GI50,786-0,> 100 µM (inactive)
same,GI50,A498,> 100 µM (inactive)
same,GI50,A549,> 100 µM (inactive)
same,GI50,ACHN,> 100 µM (inactive)
same,GI50,CAKI-1,> 100 µM (inactive)
same,GI50,CCRF-CEM,> 100 µM (inactive)
same,GI50,COLO 205,> 100 µM (inactive)
same,GI50,DLD-1,> 100 µM (inactive)
same,GI50,DMS-114,> 100 µM (inactive)
same,GI50,DMS-273,> 100 µM (inactive)
same,GI50,EKVX,> 100 µM (inactive)
same,GI50,HCC 2998,> 100 µM (inactive)
same,GI50,HCT-116,> 100 µM (inactive)
same,GI50,HCT-15,> 100 µM
same,GI50,HL-60,> 100 µM (inactive)
same,GI50,HOP-62,> 100 µM (inactive)
same,GI50,HOP-92,> 100 µM (inactive)
same,GI50,HT-29,> 100 µM (inactive)
same,GI50,IGROV-1,> 100 µM (inactive)
same,GI50,K562,> 100 µM (inactive)
same,GI50,KM-20L2,> 100 µM (inactive)
same,GI50,KM12,> 100 µM (inactive)
same,GI50,LOX IMVI,> 100 µM (inactive)
same,GI50,LXFL 529,> 100 µM (inactive)
same,GI50,M14,> 100 µM (inactive)
same,GI50,M19-MEL,> 100 µM (inactive)
same,GI50,MOLT-4,> 100 µM (inactive)
same,GI50,Malme-3M,> 100 µM (inactive)
same,GI50,NCI-H226,> 100 µM (inactive)
same,GI50,NCI-H23,> 100 µM (inactive)
same,GI50,NCI-H460,> 100 µM (inactive)
same,GI50,NCI-H522,> 100 µM (inactive)
same,GI50,OVCAR-3,> 100 µM (inactive)
same,GI50,OVCAR-4,> 100 µM (inactive)
same,GI50,OVCAR-5,> 100 µM (inactive)
same,GI50,OVCAR-8,> 100 µM (inactive)
same,GI50,RPMI-8226,> 100 µM (inactive)
same,GI50,RXF 393,> 100 µM (inactive)
same,GI50,SF-268,> 100 µM (inactive)
same,GI50,SF-295,> 100 µM (inactive)
same,GI50,SF-539,> 100 µM (inactive)
same,GI50,SK-MEL-28,> 100 µM (inactive)
same,GI50,SK-MEL-5,> 100 µM (inactive)
same,GI50,SK-OV-3,> 100 µM (inactive)
same,GI50,SN12C,> 100 µM (inactive)
same,GI50,SNB-19,> 100 µM (inactive)
same,GI50,SNB-75,> 100 µM (inactive)
same,GI50,SNB-78,> 100 µM (inactive)
same,GI50,SW-620,> 100 µM (inactive)
same,GI50,TK-10,> 100 µM (inactive)
same,GI50,U-251,> 100 µM (inactive)
same,GI50,UACC-257,> 100 µM (inactive)
same,GI50,UACC-62,> 100 µM (inactive)
same,GI50,UO-31,> 100 µM (inactive)
same,GI50,XF498,> 100 µM (inactive)
CC(=O)OCC1OC(OC(C)=O)C(NC#N)C(OC(C)=O)C1OC(C)=O (stereo not given),GI50,786-0,> 100 µM (inactive)
same,GI50,A498,> 100 µM (inactive)
same,GI50,A549,> 100 µM (inactive)
same,GI50,ACHN,49.7 µM (inactive)
same,GI50,CAKI-1,> 100 µM (inactive)
same,GI50,CCRF-CEM,43.7 µM (inactive)
same,GI50,COLO 205,> 100 µM (inactive)
same,GI50,DLD-1,> 100 µM (inactive)
same,GI50,DMS-114,> 100 µM (inactive)
same,GI50,DMS-273,> 100 µM (inactive)
same,GI50,HCC 2998,> 100 µM (inactive)
same,GI50,HCT-116,> 100 µM (inactive)
same,GI50,HCT-15,> 100 µM
same,GI50,HL-60,> 100 µM (inactive)
same,GI50,HOP-18,> 100 µM (inactive)
same,GI50,HOP-62,> 100 µM (inactive)
same,GI50,HOP-92,> 100 µM (inactive)
same,GI50,HT-29,> 100 µM (inactive)
same,GI50,IGROV-1,> 100 µM (inactive)
same,GI50,K562,> 100 µM (inactive)
same,GI50,KM12,> 100 µM (inactive)
same,GI50,LOX IMVI,39.2 µM (inactive)
same,GI50,LXFL 529,67.9 µM (inactive)
same,GI50,M14,97.7 µM (inactive)
same,GI50,M19-MEL,> 100 µM (inactive)
same,GI50,MOLT-4,86.5 µM (inactive)
same,GI50,Malme-3M,> 100 µM (inactive)
same,GI50,NCI-H23,> 100 µM (inactive)
same,GI50,NCI-H460,68.1 µM (inactive)
same,GI50,NCI-H522,> 100 µM (inactive)
same,GI50,OVCAR-3,> 100 µM (inactive)
same,GI50,OVCAR-4,> 100 µM (inactive)
same,GI50,OVCAR-5,> 100 µM (inactive)
same,GI50,OVCAR-8,> 100 µM (inactive)
same,GI50,RPMI-8226,67.8 µM (inactive)
same,GI50,RXF 393,> 100 µM (inactive)
same,GI50,SF-268,> 100 µM (inactive)
same,GI50,SF-295,80.4 µM (inactive)
same,GI50,SF-539,> 100 µM (inactive)
same,GI50,SK-MEL-28,> 100 µM (inactive)
same,GI50,SK-MEL-2,50.7 µM (inactive)
same,GI50,SK-MEL-5,73.1 µM (inactive)
same,GI50,SK-OV-3,> 100 µM (inactive)
same,GI50,SN12C,> 100 µM (inactive)
same,GI50,SNB-19,> 100 µM (inactive)
same,GI50,SNB-75,> 100 µM (inactive)
same,GI50,SR,73.5 µM (inactive)
same,GI50,SW-620,> 100 µM (inactive)
same,GI50,TK-10,> 100 µM (inactive)
same,GI50,U-251,> 100 µM (inactive)
same,GI50,UACC-62,> 100 µM (inactive)
same,GI50,UO-31,36.1 µM (inactive)
O=C1OC(/C=C/c2ccccc2)C(=O)C1=O (stereo not given),GI50,786-0,> 100 µM (inactive)
same,GI50,A498,> 100 µM (inactive)
same,GI50,A549,> 100 µM (inactive)
same,GI50,ACHN,> 100 µM (inactive)
same,GI50,CCRF-CEM,> 100 µM (inactive)
same,GI50,COLO 205,> 100 µM (inactive)
same,GI50,DLD-1,> 100 µM (inactive)
same,GI50,DMS-273,> 100 µM (inactive)
same,GI50,EKVX,> 100 µM (inactive)
same,GI50,HCC 2998,> 100 µM (inactive)
same,GI50,HCT-15,> 100 µM
same,GI50,HL-60,> 100 µM (inactive)
same,GI50,HOP-18,23.8 µM (inactive)
same,GI50,HOP-62,> 100 µM (inactive)
same,GI50,HOP-92,> 100 µM (inactive)
same,GI50,HT-29,> 100 µM (inactive)
same,GI50,IGROV-1,> 100 µM (inactive)
same,GI50,K562,> 100 µM (inactive)
same,GI50,KM-20L2,> 100 µM (inactive)
same,GI50,KM12,> 100 µM (inactive)
same,GI50,LXFL 529,> 100 µM (inactive)
same,GI50,M14,> 100 µM (inactive)
same,GI50,M19-MEL,> 100 µM (inactive)
same,GI50,MOLT-4,> 100 µM (inactive)
same,GI50,Malme-3M,> 100 µM (inactive)
same,GI50,NCI-H226,> 100 µM (inactive)
same,GI50,NCI-H23,> 100 µM (inactive)
same,GI50,NCI-H460,> 100 µM (inactive)
same,GI50,NCI-H522,> 100 µM (inactive)
same,GI50,OVCAR-4,> 100 µM (inactive)
same,GI50,OVCAR-5,> 100 µM (inactive)
same,GI50,RPMI-8226,> 100 µM (inactive)
same,GI50,RXF 393,> 100 µM (inactive)
same,GI50,SF-268,> 100 µM (inactive)
same,GI50,SF-295,> 100 µM (inactive)
same,GI50,SF-539,> 100 µM (inactive)
same,GI50,SK-MEL-28,> 100 µM (inactive)
same,GI50,SK-MEL-2,> 100 µM (inactive)
same,GI50,SK-OV-3,> 100 µM (inactive)
same,GI50,SNB-19,> 100 µM (inactive)
same,GI50,SNB-75,> 100 µM (inactive)
same,GI50,SW-620,> 100 µM (inactive)
same,GI50,TK-10,> 100 µM (inactive)
same,GI50,U-251,> 100 µM (inactive)
same,GI50,UACC-257,> 100 µM (inactive)
same,GI50,UACC-62,> 100 µM (inactive)
same,GI50,UO-31,> 100 µM (inactive)
same,GI50,XF498,> 100 µM (inactive)
